Assay results as given in patent publication US20230093861A1, “RAPAMYCIN ANALOGS AS MTOR INHIBITORS” (Revolution Medicines, Inc., priority 2017, published 2023).
Where two headings read alike, the source gives them in different places.

Tests used:
P-4E-BP1 (T37/46) = assay: Cell based AlphaLISA assay, inhibition of P-4E-BP1 (T37/46) (mTORC1 substrate phosphorylation) in MDA-MB-468 cells; conditions: Homo sapiens, AlphaLISA, two to four hours at 37° C., read-out: pIC50 for Inhibition of mTORC1 and mTORC2 Substrate Phosphorylation, P-4E-BP1-(T37/46) (converted)
Outline: (§1)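 AlphaLISA SureFire Ultra read-out of P-4E-BP1 (T37/46), P-P70S6K (T389) and P-Akt (S473) in MDA-MB-468 cells after compound treatment; cells lysed in kit buffer. Alpha signal read in duplicate; IC50 from normalized concentration-response regression with control-based normalization.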

P-P70S6K (T389) = assay: Cell based AlphaLISA assay, inhibition of P-P70S6K (T389) (mTORC1 substrate phosphorylation) in MDA-MB-468 cells; conditions: Homo sapiens, 4 h, AlphaLISA, two to four hours at 37° C., read-out: pIC50 for Inhibition of mTORC1 and mTORC2 Substrate Phosphorylation, P-P70S6K-(T389) (converted)
Outline: as §1

P-Akt (S473) = assay: Cell based AlphaLISA assay, inhibition of P-Akt (S473) (mTORC2 substrate phosphorylation) in MDA-MB-468 cells; conditions: Homo sapiens, AlphaLISA, two to four hours at 37° C., read-out: pIC50 for Inhibition of mTORC1 and mTORC2 Substrate Phosphorylation, p-AKT 1/2/3 -(S473) (converted)
Outline: as §1

Structure (SMILES)	IC50 (P-4E-BP1 (T37/46); MDA-MB-468, 4 h) [nM]	IC50 (P-P70S6K (T389)) [nM]	IC50 (P-Akt (S473); MDA-MB-468, 4 h) [nM]	IC50 (P-4E-BP1 (T37/46); 4 h) [nM]	IC50 (P-Akt (S473); 4 h) [nM]
CCO[C@@H]1C[C@@H]([C@H](C)C[C@@H]2CC[C@H](n3cc(CCCC(=O)NCCOCCOCCOCCC(=O)NCCOCCOCCOCCC(=O)NCCCCn4nc(-c5cc6cc(O)ccc6[nH]5)c5c(N)ncnc54)nn3)[C@H](OC)C2)OC(=O)[C@@H]2CCCCN2C(=O)C(=O)[C@]2(O)O[C@@H](CC[C@H]2C)C[C@H](OC)/C(C)=C/C=C/C=C/[C@@H](C)C[C@@H](C)C(=O)[C@H](OC)[C@H](O)/C(C)=C/[C@H]1C [Example 168]	31.6 to 1000	10 to 1000	> 1000		
CO[C@H]1C[C@@H]2CC[C@@H](C)[C@@](O)(O2)C(=O)C(=O)N2CCCC[C@H]2C(=O)O[C@H]([C@H](C)C[C@@H]2CC[C@@H](O)[C@H](OC)C2)C[C@@H](OC)[C@H](C)/C=C(\C)[C@@H](O)[C@@H](OC)C(=NOCc2cn(CCOCCOCCOCCOCCC(=O)NCCCCn3nc(-c4ccc5oc(N)nc5c4)c4c(N)ncnc43)nn2)[C@H](C)C[C@H](C)/C=C/C=C/C=C/1C [Example 16]	> 1000	> 1000	> 1000		
CO[C@H]1C[C@@H]2CC[C@@H](C)[C@@](O)(O2)C(=O)C(=O)N2CCCC[C@H]2C(=O)O[C@H]([C@H](C)C[C@@H]2CC[C@@H](OCCCCc3cn(CCOCCOCCOCCOCCNC(=O)CCC(=O)NCCCCn4nc(-c5ccc6oc(N)nc6c5)c5c(N)ncnc54)nn3)[C@H](OC)C2)CC(=O)[C@H](C)/C=C(\C)[C@@H](O)[C@@H](OC)C(=O)[C@H](C)C[C@H](C)/C=C/C=C/C=C/1C [Example 99]	3.16 to 31.6	< 1	3.16 to 31.6		
CO[C@H]1C[C@@H]2CC[C@@H](C)[C@@](O)(O2)C(=O)C(=O)N2CCCC[C@H]2C(=O)O[C@H]([C@H](C)C[C@@H]2CC[C@@H](OCCCCc3cn(CCOCCOCCOCCOCCOCCOCCC(=O)NCCCCn4nc(-c5ccc6oc(N)nc6c5)c5c(N)ncnc54)nn3)[C@H](OC)C2)CC(=O)[C@H](C)/C=C(\C)[C@@H](O)[C@@H](OC)C(=O)[C@H](C)C[C@H](C)/C=C/C=C/C=C/1C [Example 3]		< 1		< 3.16	3.16 to 31.6
CO[C@H]1C[C@@H]2CC[C@@H](C)[C@@](O)(O2)C(=O)C(=O)N2CCCC[C@H]2C(=O)O[C@H]([C@H](C)C[C@@H]2CC[C@@H](OCCCCc3cn(CCOCCOCCOCCOCCOCCOCCC(=O)NCCCCn4ncc5c(N)ncnc54)nn3)[C@H](OC)C2)CC(=O)[C@H](C)/C=C(\C)[C@@H](O)[C@@H](OC)C(=O)[C@H](C)C[C@H](C)/C=C/C=C/C=C/1C [Example 6]	> 1000	< 1	> 1000		
CO[C@H]1C[C@@H]2CC[C@@H](C)[C@@](O)(O2)C(=O)C(=O)N2CCCC[C@H]2C(=O)O[C@H]([C@H](C)C[C@@H]2CC[C@@H](O)[C@H](OC)C2)C[C@@H](O)[C@H](C)/C=C(\C)[C@@H](O)[C@@H](OC)C(=NOCc2cn(CCOCCOCCOCCOCCOCCOCCOCCOCCC(=O)NCCCCn3nc(-c4ccc5oc(N)nc5c4)c4c(N)ncnc43)nn2)[C@H](C)C[C@H](C)/C=C/C=C/C=C/1C [Example 50]	3.16 to 31.6	1 to 10	31.6 to 1000		
CO[C@H]1C[C@@H]2CC[C@@H](C)[C@@](O)(O2)C(=O)C(=O)N2CCCC[C@H]2C(=O)O[C@H]([C@H](C)C[C@@H]2CC[C@@H](OCCCCc3cn(CCOCCOCCOCCOCCOCCOCCOCCOCCC(=O)NCCCCn4nc(-c5cc6cc(O)ccc6[nH]5)c5c(N)ncnc54)nn3)[C@H](OC)C2)CC(=O)[C@H](C)/C=C(\C)[C@@H](O)[C@@H](OC)C(=O)[C@H](C)C[C@H](C)/C=C/C=C/C=C/1C [Example 42]		< 1		< 3.16	3.16 to 31.6
CO[C@H]1C[C@@H]2CC[C@@H](C)[C@@](O)(O2)C(=O)C(=O)N2CCCC[C@H]2C(=O)O[C@H]([C@H](C)C[C@@H]2CC[C@H](n3nncc3-c3cccc(-c4cnc(N5CCN(Cc6cn(CCOCCOCCOCCC(=O)NCCCCn7nc(-c8ccc9oc(N)nc9c8)c8c(N)ncnc87)nn6)C(CO)C5)nc4)c3)[C@H](OC)C2)CC(=O)[C@H](C)/C=C(\C)[C@@H](O)[C@@H](OC)C(=O)[C@H](C)C[C@H](C)/C=C/C=C/C=C/1C (stereo partly drawn) [Example 34]	3.16 to 31.6	1 to 10	31.6 to 1000		
CO[C@H]1C[C@@H]2CC[C@@H](C)[C@@](O)(O2)C(=O)C(=O)N2CCCC[C@H]2C(=O)O[C@H]([C@H](C)C[C@@H]2CC[C@H](n3cc(-c4cccc(C(=O)NCCOCCOCCOCCOCCC(=O)NCCOCCOCCOCCOCCC(=O)NCCCCn5nc(-c6ccc7oc(N)nc7c6)c6c(N)ncnc65)c4)nn3)[C@H](OC)C2)CC(=O)[C@H](C)/C=C(\C)[C@@H](O)[C@@H](OC)C(=O)[C@H](C)C[C@H](C)/C=C/C=C/C=C/1C [Example 141]	3.16 to 31.6	1 to 10	3.16 to 31.6		
CO[C@H]1C[C@@H]2CC[C@@H](C)[C@@](O)(O2)C(=O)C(=O)N2CCCC[C@H]2C(=O)O[C@H]([C@H](C)C[C@@H]2CC[C@H](n3cc(COC(=O)NCCOCCOCCOCCC(=O)NCCOCCOCCC(=O)NCCCCn4nc(-c5ccc6oc(N)nc6c5)c5c(N)ncnc54)nn3)[C@H](OC)C2)CC(=O)[C@H](C)/C=C(\C)[C@@H](O)[C@@H](OC)C(=O)[C@H](C)C[C@H](C)/C=C/C=C/C=C/1C [Example 120]	3.16 to 31.6	1 to 10	31.6 to 1000		
CO[C@H]1C[C@@H]2CC[C@@H](C)[C@@](O)(O2)C(=O)C(=O)N2CCCC[C@H]2C(=O)O[C@H]([C@H](C)C[C@@H]2CC[C@@H](OCc3cccc(-c4cnc(N5CCN(C(=O)CCc6cn(CCOCCOCCC(=O)NCCCCn7nc(-c8ccc9oc(N)nc9c8)c8c(N)ncnc87)nn6)CC5)nc4)c3)[C@H](OC)C2)CC(=O)[C@H](C)/C=C(\C)[C@@H](O)[C@@H](OC)C(=O)[C@H](C)C[C@H](C)/C=C/C=C/C=C/1C [Example 47]	< 3.16	< 1	3.16 to 31.6		
CCO[C@@H]1C[C@@H]([C@H](C)C[C@@H]2CC[C@H](n3cc(COC(=O)NCCOCCOCCOCCC(=O)NCCOCCOCCOCCC(=O)NCCCCn4nc(-c5ccc6oc(N)nc6c5)c5c(N)ncnc54)nn3)[C@H](OC)C2)OC(=O)[C@@H]2CCCCN2C(=O)C(=O)[C@]2(O)O[C@@H](CC[C@H]2C)C[C@H](OC)/C(C)=C/C=C/C=C/[C@@H](C)C[C@@H](C)C(=O)[C@H](OC)[C@H](O)/C(C)=C/[C@H]1C [Example 149]	31.6 to 1000	1 to 10	31.6 to 1000		
CO[C@H]1C[C@@H]2CC[C@@H](C)[C@@](O)(O2)C(=O)C(=O)N2CCCC[C@H]2C(=O)O[C@H]([C@H](C)C[C@@H]2CC[C@H](n3cc(CCCC(=O)NCCOCCOCCOCCC(=O)NCCOCCOCCOCCC(=O)NCCCCn4nc(-c5cc6cc(O)ccc6[nH]5)c5c(N)ncnc54)nn3)[C@H](OC)C2)CC(=O)[C@H](C)/C=C(\C)[C@@H](O)[C@@H](OC)C(=O)[C@H](C)C[C@H](C)/C=C/C=C/C=C/1C [Example 131]	31.6 to 1000	1 to 10	31.6 to 1000		
